Drawing on patent publication US10385097B2, “Ether compounds for treatment of medical disorders” (Achillion Pharmaceuticals, Inc., priority 2015, dated 2019), this text covers IC50 for 25 compounds.

Where two headings read alike, the source gives them in different places. Some results are limits rather than exact numbers.

This experiment deals with T1, Human Factor D (Homo sapiens, UniProt P00746).
T1 construct: purified from human serum; purchased Complement Technology, Inc; host or cells: human serum (natural protein, not recombinant)
Nature of the experiment: Human Factor D Assay. The experiment is classed as biochemical. The procedure:
Example 8. Human Factor D Assay
Human Factor D (purified from human serum, Complement Technology, Inc.) at 80 nM final concentration is incubated with test compound at various concentrations for 5 minutes at room temperature in 50 mM Tris, 1M NaCl, pH 7.5. A synthetic substrate Z-L-Lys-SBzl and DTNB (Ellman's reagent) are added to final concentrations of 100 μM each. Absorbance at 405 nm (A405) is recorded at 30 second intervals for 30 minutes using a microplate spectrophotometer. IC50 values are calculated by nonlinear regression of complement Factor D reaction rates as a function of test compound concentration.

Where [1] appears, read: Table 1, Human Factor D 80 nM, substrate Z-L-Lys-SBzl, read-out: IC50.

T1 sequence (P00746 26-253): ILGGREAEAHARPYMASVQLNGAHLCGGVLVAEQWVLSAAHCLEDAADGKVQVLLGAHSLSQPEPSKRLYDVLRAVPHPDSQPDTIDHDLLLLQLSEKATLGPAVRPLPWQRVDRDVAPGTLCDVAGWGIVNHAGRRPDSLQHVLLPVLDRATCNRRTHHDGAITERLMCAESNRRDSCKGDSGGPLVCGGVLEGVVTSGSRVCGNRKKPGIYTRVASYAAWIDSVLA

Regarding `CC(=O)c1cn(CC(=O)N2C[C@H](F)C[C@H]2C(=O)Nc2cccc(Br)n2)c2ccc(OCC[S+]([O-])CC3(C)COC3)cc12` (stereo partly shown) [Cmp 4], the IC50 (as a rule, the concentration that gives 50% inhibition) (Table 3, Human Factor D 80 nM, substrate Z-L-Lys-SBzl, read-out: (IC50 (Stars))) is less than 1 µM.
Regarding `CC(=O)c1cn(CC(=O)N2C[C@H](F)C[C@H]2C(=O)Nc2cccc(OC(F)(F)F)c2F)c2cc(OCC3CC3)ccc12` [Cmp 4], under setting [1], the IC50 is less than 1 µM.
With `CC(=O)c1cn(CC(=O)N2C[C@H](F)C[C@H]2C(=O)NCc2cccc(Cl)c2F)c2cc(OCCC3CC3)ccc12` [Cmp 5], the IC50 is less than 1 µM.
Regarding `CC(=O)c1cn(CC(=O)N2C[C@H](F)C[C@H]2C(=O)Nc2cccc(Br)n2)c2ccc(OCCSCC3(C)COC3)cc12` [Cmp 5], the IC50 is less than 1 µM.
As for `CC(=O)c1cn(CC(=O)N2C[C@H](F)C[C@H]2C(=O)NCc2cccc(Cl)c2F)c2cc(OCC3CC3)ccc12` [Compound 1, (2S,4R)-1-(2-(3-acetyl-6-(cyclopropylmethoxy)-1H-indol-1-yl)acetyl)-N-(3-chloro-2-fluorobenzyl)-4-fluoropyrrolidine-2-carboxamide], the IC50 under setting [1] was less than 1 µM.
Consider `CC(=O)c1cn(CC(=O)N2C[C@H](F)C[C@H]2C(=O)NCc2cccc(Cl)c2F)c2cc(OS(=O)(=O)C(F)(F)F)ccc12` [Compound 2, 3-acetyl-1-(2-((2S,4R)-2-(3-chloro-2-fluorobenzylcarbamoyl)-4-fluoropyrrolidin-1-yl)-2-oxoethyl)-1H-indol-6-yl trifluoromethanesulfonate], for which, under setting [1], the IC50 was less than 1 µM.
For the compound `CC(=O)c1cn(CC(=O)N2[C@@H]3C[C@@H]3C[C@H]2C(=O)NCc2cccc(Cl)c2F)c2cc(OCC3CC3)ccc12` [Compound 3, (1R,3S,5R)-2-(2-(3-acetyl-6-(cyclopropylmethoxy)-1H-indol-1-yl)acetyl)-N-(3-chloro-2-fluorobenzyl)-2-azabicyclo[3.1.0]hexane-3-carboxamide], the IC50 under setting [1] is less than 1 µM.
Turning to `CCOP(=O)(COc1ccc2c(C(C)=O)cn(CC(=O)N3C[C@H](F)C[C@H]3C(=O)NCc3cccc(Cl)c3F)c2c1)OCC` [Compound 7, Diethyl(((3-acetyl-1-(2-((2S,4R)-2-((3-chloro-2-fluorobenzyl)carbamoyl)-4-fluoropyrrolidin-1-yl)-2-oxoethyl)-1H-indol-6-yl)oxy)methyl)phosphonate], the IC50 under setting [1] was less than 1 µM.
As to `CC(=O)c1cn(CC(=O)N2C[C@H](F)C[C@H]2C(=O)NCc2cccc(Cl)c2F)c2cc(OCP(=O)(O)O)ccc12` [Compound 8, (((3-Acetyl-1-(2-((2S,4R)-2-((3-chloro-2-fluorobenzyl)carbamoyl)-4-fluoropyrrolidin-1-yl)-2-oxoethyl)-1H-indol-6-yl)oxy)methyl)phosphonic acid], under setting [1], the IC50 was less than 1 µM.
For the compound `CC(=O)c1cn(CC(=O)N2C[C@H](F)C[C@H]2C(=O)NCc2cccc(Cl)c2F)c2ccc(OS(=O)(=O)C(F)(F)F)cc12` [Compound 9, 3-acetyl-1-(2-((2S,4R)-2-(3-chloro-2-fluorobenzylcarbamoyl)-4-fluoropyrrolidin-1-yl)-2-oxoethyl)-1H-indol-5-yl trifluoromethanesulfonate], the IC50 under setting [1] was less than 1 µM.
`CCOP(=O)(COc1ccc2c(c1)c(C(C)=O)cn2CC(=O)N1C[C@H](F)C[C@H]1C(=O)NCc1cccc(Cl)c1F)OCC` [Compound 10, Diethyl(((3-acetyl-1-(2-((2S,4R)-2-((3-chloro-2-fluorobenzyl)carbamoyl)-4-fluoropyrrolidin-1-yl)-2-oxoethyl)-1H-indol-5-yl)oxy)methyl)phosphonate]: the IC50 under setting [1] is less than 1 µM.
In the case of `CC(=O)c1cn(CC(=O)N2C[C@H](F)C[C@H]2C(=O)NCc2cccc(Cl)c2F)c2ccc(OCP(=O)(O)O)cc12` [Compound 11, (((3-acetyl-1-(2-((2S,4R)-2-((3-chloro-2-fluorobenzyl)carbamoyl)-4-fluoropyrrolidin-1-yl)-2-oxoethyl)-1H-indol-5-yl)oxy)methyl)phosphonic acid], the IC50 under setting [1] was less than 1 µM.
On to `CC(=O)c1cn(CC(=O)N2C[C@H](F)C[C@H]2C(=O)NCc2cccc(Cl)c2F)c2cc(OCP(=O)(OCOC(=O)OC(C)C)OCOC(=O)OC(C)C)ccc12` [Compound 12, (((3-acetyl-1-(2-((2S,4R)-2-(3-chloro-2-fluorobenzylcarbamoyl)-4-fluoropyrrolidin-1-yl)-2-oxoethyl)-1H-indol-6-yloxy)methyl)phosphoryl)bis(oxy)bis(methylene) isopropyl dicarbonate], for which the IC50 under setting [1] is less than 1 µM.
As to `CC(=O)c1cn(CC(=O)N2C[C@H](F)C[C@H]2C(=O)NCc2cccc(Cl)c2F)c2cc(OCP(=O)(O)OCOC(=O)OC(C)C)ccc12` [Compound 13, (((((3-Acetyl-1-(2-((2S,4R)-2-((3-chloro-2-fluorobenzyl)carbamoyl)-4-fluoropyrrolidin-1-yl)-2-oxoethyl)-1H-indol-6-yl)oxy)methyl)(hydroxy)phosphoryl)oxy)methyl isopropyl carbonate], the IC50 is less than 1 µM.
Take `CCOP(=O)(CC)COc1ccc2c(C(C)=O)cn(CC(=O)N3C[C@H](F)C[C@H]3C(=O)NCc3cccc(Cl)c3F)c2c1` (stereo partly drawn) [Compound 14, Ethyl (((3-acetyl-1-(2-((2S,4R)-2-((3-chloro-2-fluorobenzyl)carbamoyl)-4-fluoropyrrolidin-1-yl)-2-oxoethyl)-1H-indol-6-yl)oxy)methyl)(ethyl)phosphinate]: the IC50 under setting [1] was less than 1 µM.
For the compound `CC(=O)c1cn(CC(=O)N2C[C@H](F)C[C@H]2C(=O)NCc2cccc(Cl)c2F)c2cc(OCS(=O)(=O)NC(C)(C)C)ccc12` [Compound 15, (2S,4R)-1-(2-(3-Acetyl-6-((N-(tert-butyl)sulfamoyl)methoxy)-1H-indol-1-yl)acetyl)-N-(3-chloro-2-fluorobenzyl)-4-fluoropyrrolidine-2-carboxamide], the IC50 is less than 1 µM.
With `CCP(=O)(O)COc1ccc2c(C(C)=O)cn(CC(=O)N3C[C@H](F)C[C@H]3C(=O)NCc3cccc(Cl)c3F)c2c1` [Compound 16, (((3-Acetyl-1-(2-((2S,4R)-2-((3-chloro-2-fluorobenzyl)carbamoyl)-4-fluoropyrrolidin-1-yl)-2-oxoethyl)-1H-indol-6-yl)oxy)methyl)(ethyl)phosphinic Acid], the half-inhibitory concentration (IC50) was less than 1 µM.
In the case of `CC(=O)c1cn(CC(=O)N2C[C@H](F)C[C@H]2C(=O)NCc2cccc(Cl)c2F)c2cc(OCS(N)(=O)=O)ccc12` [Compound 17, (2S,4R)-1-(2-(3-acetyl-6-(sulfamoylmethoxy)-1H-indol-1-yl)acetyl)-N-(3-chloro-2-fluorobenzyl)-4-fluoropyrrolidine-2-carboxamide], the IC50 under setting [1] is less than 1 µM.
The same measure, in the same setting: with `CCOP(=O)(COc1ccc2c(C(C)=O)cn(CC(=O)N3C[C@H](F)C[C@H]3C(=O)N[C@H](C)c3cccc(Cl)c3F)c2c1)OCC` [Compound 18, diethyl (3-acetyl-1-(2-((2S,4R)-2-((R)-1-(3-chloro-2-fluorophenyl)ethylcarbamoyl)-4-fluoropyrrolidin-1-yl)-2-oxoethyl)-1H-indol-6-yloxy)methylphosphonate] the figure was less than 1 µM; with `CC(=O)c1cn(CC(=O)N2C[C@H](F)C[C@H]2C(=O)N[C@H](C)c2cccc(Cl)c2F)c2cc(OCP(=O)(O)O)ccc12` [Compound 19, (3-acetyl-1-(2-((2S,4R)-2-((R)-1-(3-chloro-2-fluorophenyl)ethylcarbamoyl)-4-fluoropyrrolidin-1-yl)-2-oxoethyl)-1H-indol-6-yloxy)methylphosphonic acid], less than 1 µM.
Still for that read-out and setting: with `CCCCCCCCCCCCCCCCOCCCOP(=O)(O)COc1ccc2c(C(C)=O)cn(CC(=O)N3C[C@H](F)C[C@H]3C(=O)NCc3cccc(Cl)c3F)c2c1` [Compound 20, 3-(hexadecyloxy)propyl hydrogen (3-acetyl-1-(2-((2S,4R)-2-(3-chloro-2-fluorobenzylcarbamoyl)-4-fluoropyrrolidin-1-yl)-2-oxoethyl)-1H-indol-6-yloxy)methylphosphonate] the figure was less than 1 µM.
On to `CC(=O)c1cn(CC(=O)N2C[C@H](F)C[C@H]2C(=O)NCc2cccc(Cl)c2F)c2cc(OCP(=O)(OCOC(=O)C(C)(C)C)OCOC(=O)C(C)(C)C)ccc12` [Compound 21, (((((3-Acetyl-1-(2-((2S,4R)-2-((3-chloro-2-fluorobenzyl)carbamoyl)-4-fluoropyrrolidin-1-yl)-2-oxoethyl)-1H-indol-6-yl)oxy)methyl)phosphoryl)bis(oxy))bis(methylene) bis(2,2-dimethylpropanoate)], for which the IC50 was less than 1 µM.
`CC(=O)c1cn(CC(=O)N2C[C@H](F)C[C@H]2CNS(=O)(=O)c2cccc(Cl)c2F)c2cc(OCP(=O)(O)O)ccc12` [Compound 22, (3-acetyl-1-(2-((2S,4R)-2-((3-chloro-2-fluorophenylsulfonamido)methyl)-4-fluoropyrrolidin-1-yl)-2-oxoethyl)-1H-indol-6-yloxy)methylphosphonic acid]: the IC50 under setting [1] was less than 1 µM.
On to `CCC(=O)OC(OP(=O)(COc1ccc2c(C(C)=O)cn(CC(=O)N3C[C@H](F)C[C@H]3C(=O)NCc3cccc(Cl)c3F)c2c1)OC(OC(=O)CC)C(C)C)C(C)C` (stereo partly drawn) [Compound 23, 1,1′-(((3-acetyl-1-(2-((2S,4R)-2-(3-chloro-2-fluorobenzylcarbamoyl)-4-fluoropyrrolidin-1-yl)-2-oxoethyl)-1H-indol-6-yloxy)methyl)phosphoryl)bis(oxy)bis(2-methylpropane-1,1-diyl) dipropionate], for which the IC50 under setting [1] was less than 1 µM.
With `CC(=O)c1cn(CC(=O)N2C[C@H](F)C[C@H]2C(=O)NCc2cccc(Cl)c2F)c2cc(OCP(=O)(N[C@@H](C)C(=O)OC(C)C)N[C@@H](C)C(=O)OC(C)C)ccc12` [Compound 24, (2S,2′S)-isopropyl-2,2′-(((3-acetyl-1-(2-((2S,4R)-2-(3-chloro-2-fluorobenzylcarbamoyl)-4-fluoropyrrolidin-1-yl)-2-oxoethyl)-1H-indol-6-yloxy)methyl)phosphoryl)bis(azanediyl) dipropanoate], the IC50 was less than 1 µM.
